Source: ChEMBL document CHEMBL2311489 (Eur J Med Chem, 2013)
Calls of active or inactive are those of the source. The calls are words filed in the database; no cut-off is given here.

Assays:
Mus musculus [1] = assay: Toxicity in CD1 mouse assessed as increase of MK-801-evoked hyperactivity at 10 mg/kg, ip after 30 mins; assay type: organism-based; set-up: dose 10 mg/kg, route intraperitoneal; conditions: in vivo, 0.5 h
Mus musculus [2] = assay: Toxicity in Swiss albino mouse assessed as locomotor activity at 20 mg/kg, ip measured after 2 to 6 mins; assay type: organism-based; set-up: dose 20 mg/kg, route intraperitoneal; conditions: in vivo
Mus musculus [3] = assay: Antidepressant activity in Swiss albino mouse assessed as reduction of immobility time at 20 mg/kg, ip measured during last 4 mins of a 6 mins test session by forced swim test; assay type: functional; set-up: scale not given: the % may be the effect or the level left; conditions: route intraperitoneal
Mus musculus [4] = assay: Antidepressant activity in Swiss albino mouse assessed as reduction of immobility time at 10 mg/kg, ip measured during last 4 mins of a 6 mins test session by forced swim test; assay type: functional; set-up: scale not given: the % may be the effect or the level left; conditions: route intraperitoneal
Mus musculus [5] = assay: Antipsychotic activity in Swiss albino mouse assessed as inhibition of apomorphine-induced climbing behavior at 5 mg/kg, ip administered 10 mins before apomorphine-challenge measured after 2 mins; assay type: functional; conditions: route intraperitoneal
[6] = target: D(3) dopamine receptor (Homo sapiens) (UniProt P35462); assay: Displacement of [3H]-methylspiperone from human dopamine D3 receptor expressed in HEK293 at 10^-6 M after 1 hr; assay type: cell-based
Sequence of D(3) dopamine receptor (Homo sapiens) (P35462 whole entry): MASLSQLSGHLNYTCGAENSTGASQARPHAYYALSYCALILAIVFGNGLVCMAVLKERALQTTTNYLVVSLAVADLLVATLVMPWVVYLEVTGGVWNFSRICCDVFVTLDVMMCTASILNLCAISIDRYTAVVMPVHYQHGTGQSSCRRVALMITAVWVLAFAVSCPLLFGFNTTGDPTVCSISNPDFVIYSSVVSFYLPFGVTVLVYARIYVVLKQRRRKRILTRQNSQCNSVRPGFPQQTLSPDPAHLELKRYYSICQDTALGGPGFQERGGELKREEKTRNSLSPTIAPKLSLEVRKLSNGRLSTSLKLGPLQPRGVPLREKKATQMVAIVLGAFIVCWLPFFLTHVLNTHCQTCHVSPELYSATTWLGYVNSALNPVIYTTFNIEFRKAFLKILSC

D(2) dopamine receptor = D(2) dopamine receptor (Homo sapiens, UniProt P14416); assay: biochemical; assay type: cell-based, HEK293
Sequence of D(2) dopamine receptor (P14416 whole entry): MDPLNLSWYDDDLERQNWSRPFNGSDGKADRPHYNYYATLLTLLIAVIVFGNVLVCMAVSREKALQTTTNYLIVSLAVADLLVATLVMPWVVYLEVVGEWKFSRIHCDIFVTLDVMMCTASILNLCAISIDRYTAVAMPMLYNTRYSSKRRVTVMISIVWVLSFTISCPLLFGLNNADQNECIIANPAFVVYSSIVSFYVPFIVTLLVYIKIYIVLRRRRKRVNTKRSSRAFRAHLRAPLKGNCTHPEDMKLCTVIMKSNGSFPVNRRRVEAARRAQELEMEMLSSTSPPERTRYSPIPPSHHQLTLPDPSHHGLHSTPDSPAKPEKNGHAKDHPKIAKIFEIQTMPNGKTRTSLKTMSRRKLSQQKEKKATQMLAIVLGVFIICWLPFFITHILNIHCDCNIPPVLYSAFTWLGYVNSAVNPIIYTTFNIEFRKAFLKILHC
Description: Displacement of [3H]-raclopride from human dopamine D2L receptor expressed in HEK293 after 1 hr

[7] = target: D(3) dopamine receptor (Homo sapiens) (UniProt P35462); assay: Displacement of [3H]-methylspiperone from human dopamine D3 receptor expressed in HEK293 at 10^-7 M after 1 hr; assay type: cell-based
[8] = target: T1, 5-hydroxytryptamine receptor 7 (Homo sapiens, UniProt P34969)
T1 sequence (P34969 whole entry): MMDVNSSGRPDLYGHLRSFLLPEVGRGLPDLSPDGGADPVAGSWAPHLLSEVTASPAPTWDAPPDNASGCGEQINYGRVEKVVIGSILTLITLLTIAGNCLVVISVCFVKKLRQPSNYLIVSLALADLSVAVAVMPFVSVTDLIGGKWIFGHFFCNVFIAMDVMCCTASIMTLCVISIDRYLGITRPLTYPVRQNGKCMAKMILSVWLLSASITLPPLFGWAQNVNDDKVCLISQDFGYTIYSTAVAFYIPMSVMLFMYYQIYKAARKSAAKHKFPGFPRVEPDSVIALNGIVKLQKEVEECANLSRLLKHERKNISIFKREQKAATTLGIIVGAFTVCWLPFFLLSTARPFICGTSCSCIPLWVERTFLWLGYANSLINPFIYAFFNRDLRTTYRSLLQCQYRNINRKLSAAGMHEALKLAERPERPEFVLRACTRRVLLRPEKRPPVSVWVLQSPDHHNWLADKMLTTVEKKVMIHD

[9] = target: T2, 5-hydroxytryptamine receptor 1A (Homo sapiens, UniProt P08908)
T2 sequence (P08908 whole entry): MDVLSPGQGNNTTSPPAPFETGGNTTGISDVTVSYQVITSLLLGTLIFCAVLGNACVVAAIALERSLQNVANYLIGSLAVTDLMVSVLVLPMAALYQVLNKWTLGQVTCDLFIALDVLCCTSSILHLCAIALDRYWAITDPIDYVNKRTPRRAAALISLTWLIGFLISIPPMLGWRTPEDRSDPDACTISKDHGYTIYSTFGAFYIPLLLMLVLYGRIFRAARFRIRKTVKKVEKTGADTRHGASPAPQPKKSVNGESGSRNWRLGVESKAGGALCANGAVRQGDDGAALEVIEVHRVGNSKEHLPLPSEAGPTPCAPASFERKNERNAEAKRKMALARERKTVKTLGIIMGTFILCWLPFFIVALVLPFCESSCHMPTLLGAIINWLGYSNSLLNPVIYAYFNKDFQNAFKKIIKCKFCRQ
Description: Agonist activity at human 5HT1A receptor expressed in CHO cells assessed as cAMP accumulation

[10] = target: T3, 5-hydroxytryptamine receptor 6 (Homo sapiens, UniProt P50406)
T3 sequence (P50406 whole entry): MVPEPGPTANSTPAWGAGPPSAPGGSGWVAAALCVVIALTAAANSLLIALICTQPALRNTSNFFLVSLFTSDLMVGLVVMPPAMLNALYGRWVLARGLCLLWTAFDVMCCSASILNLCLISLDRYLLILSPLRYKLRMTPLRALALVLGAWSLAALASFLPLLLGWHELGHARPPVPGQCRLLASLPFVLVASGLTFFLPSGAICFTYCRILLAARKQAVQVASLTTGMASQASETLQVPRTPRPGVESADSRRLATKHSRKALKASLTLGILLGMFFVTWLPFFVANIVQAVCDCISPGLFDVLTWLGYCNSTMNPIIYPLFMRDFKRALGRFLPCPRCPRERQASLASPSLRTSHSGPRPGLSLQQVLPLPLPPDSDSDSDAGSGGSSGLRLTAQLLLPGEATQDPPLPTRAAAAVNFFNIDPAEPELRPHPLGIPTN
Description: (§1) Displacement of [3H]-LSD from human 5HT6 receptor expressed in HEK293 after 1 hr

[11] = target: T1, 5-hydroxytryptamine receptor 7; remark: listed apart in the source
[12] = target: T2, 5-hydroxytryptamine receptor 1A; remark: listed apart in the source
[13] = target: T4, Adrenergic receptor alpha-1 (Rattus norvegicus, UniProt P15823+P23944+P43140)
T4 sequence (P15823 whole entry): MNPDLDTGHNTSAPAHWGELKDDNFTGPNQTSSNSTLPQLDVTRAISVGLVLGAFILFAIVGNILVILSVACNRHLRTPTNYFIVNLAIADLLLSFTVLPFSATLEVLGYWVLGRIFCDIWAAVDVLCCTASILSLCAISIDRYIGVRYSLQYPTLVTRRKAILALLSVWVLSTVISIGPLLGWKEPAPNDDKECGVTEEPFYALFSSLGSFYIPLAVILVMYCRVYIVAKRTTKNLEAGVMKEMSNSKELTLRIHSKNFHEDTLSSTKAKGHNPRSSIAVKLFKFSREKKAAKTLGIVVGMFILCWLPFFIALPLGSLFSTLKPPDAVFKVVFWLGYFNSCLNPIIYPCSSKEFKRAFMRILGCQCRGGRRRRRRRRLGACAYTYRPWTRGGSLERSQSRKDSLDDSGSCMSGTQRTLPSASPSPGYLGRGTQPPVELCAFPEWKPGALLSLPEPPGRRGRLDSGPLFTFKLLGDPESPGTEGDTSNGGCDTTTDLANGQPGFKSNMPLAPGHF
T4 sequence (P23944 whole entry): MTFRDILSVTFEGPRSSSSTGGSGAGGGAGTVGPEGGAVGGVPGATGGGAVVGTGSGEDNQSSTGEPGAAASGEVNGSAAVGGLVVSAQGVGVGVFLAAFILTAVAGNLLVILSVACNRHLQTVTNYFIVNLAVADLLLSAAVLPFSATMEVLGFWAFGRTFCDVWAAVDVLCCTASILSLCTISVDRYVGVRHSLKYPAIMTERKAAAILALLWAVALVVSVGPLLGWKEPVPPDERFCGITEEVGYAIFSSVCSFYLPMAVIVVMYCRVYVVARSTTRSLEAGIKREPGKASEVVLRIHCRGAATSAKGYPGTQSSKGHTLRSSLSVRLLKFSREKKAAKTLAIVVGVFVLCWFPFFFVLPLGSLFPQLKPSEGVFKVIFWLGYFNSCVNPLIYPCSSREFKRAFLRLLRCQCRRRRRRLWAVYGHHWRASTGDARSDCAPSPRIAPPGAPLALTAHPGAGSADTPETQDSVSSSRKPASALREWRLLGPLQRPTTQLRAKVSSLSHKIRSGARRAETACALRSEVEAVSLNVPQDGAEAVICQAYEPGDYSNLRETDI
T4 sequence (P43140 whole entry): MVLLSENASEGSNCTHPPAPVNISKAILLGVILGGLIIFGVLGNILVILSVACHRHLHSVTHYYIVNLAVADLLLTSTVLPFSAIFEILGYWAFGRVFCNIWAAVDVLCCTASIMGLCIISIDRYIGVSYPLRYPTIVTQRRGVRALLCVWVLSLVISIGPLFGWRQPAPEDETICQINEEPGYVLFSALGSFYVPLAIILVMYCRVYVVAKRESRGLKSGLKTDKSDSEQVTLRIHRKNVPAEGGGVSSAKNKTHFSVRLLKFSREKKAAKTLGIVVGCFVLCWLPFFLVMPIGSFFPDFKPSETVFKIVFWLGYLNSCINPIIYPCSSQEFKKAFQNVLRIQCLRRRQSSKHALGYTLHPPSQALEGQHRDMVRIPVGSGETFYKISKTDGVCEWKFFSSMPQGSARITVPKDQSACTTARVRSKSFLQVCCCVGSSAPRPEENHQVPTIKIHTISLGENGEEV
Description: Displacement of [3H]-Prazosin from adrenergic alpha1 receptor in rat cortex after 30 mins by scintillation counting

[14] = target: Sodium-dependent serotonin transporter (Rattus norvegicus, UniProt P31652); assay: biochemical
Sequence of Sodium-dependent serotonin transporter (P31652 whole entry): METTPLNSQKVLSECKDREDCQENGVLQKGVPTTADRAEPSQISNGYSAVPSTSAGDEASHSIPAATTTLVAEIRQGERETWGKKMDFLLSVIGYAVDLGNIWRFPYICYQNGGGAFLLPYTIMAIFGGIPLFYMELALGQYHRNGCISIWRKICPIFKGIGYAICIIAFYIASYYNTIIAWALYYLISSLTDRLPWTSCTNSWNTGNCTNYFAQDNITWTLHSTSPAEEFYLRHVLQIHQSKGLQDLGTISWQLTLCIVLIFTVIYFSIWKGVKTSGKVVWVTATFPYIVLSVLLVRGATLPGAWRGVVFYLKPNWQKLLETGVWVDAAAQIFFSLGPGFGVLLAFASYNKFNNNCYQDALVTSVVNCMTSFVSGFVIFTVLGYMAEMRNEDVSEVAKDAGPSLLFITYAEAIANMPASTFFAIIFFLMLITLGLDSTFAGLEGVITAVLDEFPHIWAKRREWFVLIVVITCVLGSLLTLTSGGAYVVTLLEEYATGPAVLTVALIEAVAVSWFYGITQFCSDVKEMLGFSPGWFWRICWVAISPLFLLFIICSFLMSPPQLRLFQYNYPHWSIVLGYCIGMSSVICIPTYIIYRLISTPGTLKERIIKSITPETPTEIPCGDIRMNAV

[15] = target: 5-hydroxytryptamine receptor 2A (Homo sapiens, UniProt P28223); assay: biochemical
Sequence of 5-hydroxytryptamine receptor 2A (P28223 whole entry): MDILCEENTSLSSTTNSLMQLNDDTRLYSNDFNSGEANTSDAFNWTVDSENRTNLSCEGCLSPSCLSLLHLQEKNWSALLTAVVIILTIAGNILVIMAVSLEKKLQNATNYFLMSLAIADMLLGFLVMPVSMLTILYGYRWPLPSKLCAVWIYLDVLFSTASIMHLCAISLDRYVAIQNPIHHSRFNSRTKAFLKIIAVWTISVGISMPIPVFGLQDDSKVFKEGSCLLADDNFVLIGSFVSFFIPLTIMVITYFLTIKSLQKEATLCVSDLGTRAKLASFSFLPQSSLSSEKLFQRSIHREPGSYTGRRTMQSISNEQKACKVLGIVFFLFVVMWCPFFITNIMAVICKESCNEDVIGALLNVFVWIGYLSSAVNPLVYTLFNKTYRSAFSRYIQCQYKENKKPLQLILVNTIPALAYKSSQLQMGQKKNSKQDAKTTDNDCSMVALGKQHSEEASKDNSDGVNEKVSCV
Description: Displacement of [3H]-ketanserin from human 5HT2A receptor expressed in HEK293 after 1.5 hrs

Mus musculus [16] = species on record: Mus musculus; assay: animal or person; conditions: Swiss albino, ip, 20 min, read-out: ID50
Description: Antipsychotic activity in ip dosed Swiss albino mouse assessed as inhibition of (+/-)DOI-induced head twitch response after 20 mins

Mus musculus [17] = species on record: Mus musculus; assay: animal or person; conditions: Swiss albino, ip, read-out: ID50
Description: Antipsychotic activity in ip dosed Swiss albino mouse assessed as inhibition of apomorphine-induced climbing behavior administered 10 mins before apomorphine-challenge measured after 2 mins

[18] = target: T3, 5-hydroxytryptamine receptor 6; assay: biochemical
Description: as §1

[19] = target: T1, 5-hydroxytryptamine receptor 7; assay: biochemical
[20] = target: T2, 5-hydroxytryptamine receptor 1A; assay: biochemical
Mus musculus [21] = assay: Antipsychotic activity in CD1 mouse assessed as inhibition MK-801-evoked hyperactivity at 2.5 to 20 mg/kg, ip after 30 mins; assay type: functional, organism-based
Mus musculus [22] = assay: Toxicity in Swiss albino mouse assessed as locomotor activity at 5 to 20 mg/kg, ip measured after 2 to 6 mins; assay type: organism-based; set-up: route intraperitoneal; conditions: in vivo
Mus musculus [23] = assay: Antidepressant activity in Swiss albino mouse assessed as reduction of immobility time at 5 mg/kg, ip measured during last 4 mins of a 6 mins test session by forced swim test; assay type: functional; set-up: scale not given: the % may be the effect or the level left; conditions: route intraperitoneal
Mus musculus [24] = assay: Antipsychotic activity in Swiss albino mouse assessed as inhibition of apomorphine-induced climbing behavior at 1.25 mg/kg, ip administered 10 mins before apomorphine-challenge measured after 2 mins; assay type: functional; conditions: route intraperitoneal
Mus musculus [25] = assay: Antipsychotic activity in CD1 mouse assessed as inhibition MK-801-evoked hyperactivity at 10 to 20 mg/kg, ip after 30 mins; assay type: functional, organism-based
Mus musculus [26] = assay: Toxicity in CD1 mouse assessed as increase of MK-801-evoked hyperactivity at 20 mg/kg, ip after 30 mins; assay type: organism-based; set-up: dose 20 mg/kg, route intraperitoneal; conditions: in vivo, 0.5 h
Mus musculus [27] = assay: Antipsychotic activity in Swiss albino mouse assessed as inhibition of apomorphine-induced climbing behavior at 2.5 mg/kg, ip administered 10 mins before apomorphine-challenge measured after 2 mins; assay type: functional, organism-based; set-up: dose 2.5 mg/kg

Row | SMILES | Activity (Mus musculus [3]) [%] | Activity (Mus musculus [4]) [%] | inhibition in vivo at 5 mg/kg (Mus musculus [5]) [%] | inhibition [6] [%] | Ki (D(2) dopamine receptor) [nM] | inhibition [7] [%] | IC50 [8] [nM] | EC50 [9] [nM] | Ki [13] [nM] | Ki [14] [nM] | Ki [15] [nM] | ED50 (Mus musculus [16]) [mg/kg] | ED50 (Mus musculus [17]) [mg/kg] | Ki [18] [nM] | Ki [19] [nM] | Ki [20] [nM] | Activity (Mus musculus [22]) | also measured
1 | O=S(=O)(NCCCCN1CCN(c2cccc(Cl)c2Cl)CC1)c1ccc2cccnc2c1 | 41 | 48 | 43.6 | 101 | 11 | 99 | 3800 | 865 | 136 | 788 | 22 | 4.58 | 19.9 | – | – | – | – | Activity (Mus musculus [1]): Toxic; Activity (Mus musculus [2]): Toxic; Ki [10]: 301 nM; Ki [11]: 31 nM; Ki [12]: 17 nM
2 | O=S(=O)(NCCCN1CCN(c2cccc(Cl)c2Cl)CC1)c1cnc2ccc(Cl)cc2c1 | – | – | – | – | – | – | – | – | – | – | 115 | – | – | 901 | 46 | 23 | – | –
3 | O=S(=O)(NCCCCN1CCN(c2cccc(Cl)c2Cl)CC1)c1cc2ccccc2cn1 | 83 | 53 | – | 98 | 17 | 95 | 5600 | 15500 | 255 | 335 | 35 | 9.03 | 19.9 | – | – | – | Non-toxic | inhibition (Mus musculus [21]): inactive; Activity (Mus musculus [23]): 43%; inhibition in vivo at 1.25 mg/kg (Mus musculus [24]): 49.1%; Ki [10]: 454 nM; Ki [11]: 56 nM; Ki [12]: 34 nM
4 | CSc1ccc2c(c1)C(CCN)=CC2 [METHIOTHEPINE] | – | – | – | – | – | – | 2.2 | – | – | – | – | – | – | – | – | – | – | –
5 | O=S(=O)(NCCCCN1CCN(c2cccc(Cl)c2Cl)CC1)c1cncc2ccccc12 | 44 | – | 44.6 | 95 | 8 | 93 | 820 | 15000 | 160 | 783 | 90 | 5.3 | 11.3 | 220 | 21 | 59 | Non-toxic | inhibition (Mus musculus [25]): Active
6 | O=S(=O)(NCCCN1CCN(c2cccc(Cl)c2Cl)CC1)c1ccc2ncccc2c1 | – | – | – | – | – | – | – | – | – | – | 65 | – | – | 326 | 31 | 25 | – | –
7 | O=S(=O)(NCCCCN1CCN(c2cccc(Cl)c2Cl)CC1)c1cccc2cccnc12 | – | – | – | – | – | – | – | – | – | – | 29 | – | – | 598 | 27 | 112 | – | –
8 | O=S(=O)(NCCCCN1CCN(c2cccc(Cl)c2Cl)CC1)c1cnc2ccc(Cl)cc2c1 | – | – | – | – | – | – | – | – | – | – | 42 | – | – | 555 | 41 | 88 | – | –
9 | O=S(=O)(NCCCCN1CCN(c2cccc(Cl)c2Cl)CC1)c1cnc2ccccc2c1 | 30 | 31 | 49.3 | 99 | 9 | 94 | 7800 | 1650 | 170 | 1200 | 34 | 20.2 | 20.7 | 1330 | 30 | 23 | Non-toxic | inhibition (Mus musculus [21]): inactive
10 | O=S(=O)(NCCCCN1CCN(c2cccc(Cl)c2Cl)CC1)c1ccc2ncccc2c1 | – | – | – | – | – | – | – | – | – | – | 23 | – | – | 484 | 124 | 79 | – | –
11 | O=S(=O)(NCCCN1CCN(c2cccc(Cl)c2Cl)CC1)c1ccc2cccnc2c1 | – | 79 | 50.5 | 99 | 16 | 90 | 2800 | 7400 | 186 | 224 | 47 | 10.2 | – | – | – | – | Non-toxic | Activity (Mus musculus [26]): Toxic; Activity (Mus musculus [23]): 57%; Activity (Mus musculus [27]): Active; Ki [10]: 257 nM; Ki [11]: 12 nM; Ki [12]: 14 nM
